Data as given in patent publication US10246426B2, “Triazole compounds as T-type calcium channel blockers” (IDORSIA PHARMACEUTICALS LTD, priority 2014, dated 2019).

Target: Cav3.2 (Homo sapiens, UniProt O95180)
Experiment: Calcium flux FLIPR assay, HEK293 cells recombinantly expressing Cav3.2
Format: cell-based
Conditions: Cav3.2-channel, Ca2+ entry stimulated by 10 mM CaCl2
Procedure, shortened: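 Fluo-4-loaded HEK293 cells stably expressing Cav3.2, seeded overnight at 37 °C; compounds diluted in TEAC buffer (pH 7.2) and preincubated 3 min before Ca2+ entry triggered with CaCl2 at 10 mM final. Area under FLIPR fluorescence trace fitted sigmoidally; IC50 relative to vehicle signal.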

Chain of Cav3.2 (O95180 whole entry, looked up): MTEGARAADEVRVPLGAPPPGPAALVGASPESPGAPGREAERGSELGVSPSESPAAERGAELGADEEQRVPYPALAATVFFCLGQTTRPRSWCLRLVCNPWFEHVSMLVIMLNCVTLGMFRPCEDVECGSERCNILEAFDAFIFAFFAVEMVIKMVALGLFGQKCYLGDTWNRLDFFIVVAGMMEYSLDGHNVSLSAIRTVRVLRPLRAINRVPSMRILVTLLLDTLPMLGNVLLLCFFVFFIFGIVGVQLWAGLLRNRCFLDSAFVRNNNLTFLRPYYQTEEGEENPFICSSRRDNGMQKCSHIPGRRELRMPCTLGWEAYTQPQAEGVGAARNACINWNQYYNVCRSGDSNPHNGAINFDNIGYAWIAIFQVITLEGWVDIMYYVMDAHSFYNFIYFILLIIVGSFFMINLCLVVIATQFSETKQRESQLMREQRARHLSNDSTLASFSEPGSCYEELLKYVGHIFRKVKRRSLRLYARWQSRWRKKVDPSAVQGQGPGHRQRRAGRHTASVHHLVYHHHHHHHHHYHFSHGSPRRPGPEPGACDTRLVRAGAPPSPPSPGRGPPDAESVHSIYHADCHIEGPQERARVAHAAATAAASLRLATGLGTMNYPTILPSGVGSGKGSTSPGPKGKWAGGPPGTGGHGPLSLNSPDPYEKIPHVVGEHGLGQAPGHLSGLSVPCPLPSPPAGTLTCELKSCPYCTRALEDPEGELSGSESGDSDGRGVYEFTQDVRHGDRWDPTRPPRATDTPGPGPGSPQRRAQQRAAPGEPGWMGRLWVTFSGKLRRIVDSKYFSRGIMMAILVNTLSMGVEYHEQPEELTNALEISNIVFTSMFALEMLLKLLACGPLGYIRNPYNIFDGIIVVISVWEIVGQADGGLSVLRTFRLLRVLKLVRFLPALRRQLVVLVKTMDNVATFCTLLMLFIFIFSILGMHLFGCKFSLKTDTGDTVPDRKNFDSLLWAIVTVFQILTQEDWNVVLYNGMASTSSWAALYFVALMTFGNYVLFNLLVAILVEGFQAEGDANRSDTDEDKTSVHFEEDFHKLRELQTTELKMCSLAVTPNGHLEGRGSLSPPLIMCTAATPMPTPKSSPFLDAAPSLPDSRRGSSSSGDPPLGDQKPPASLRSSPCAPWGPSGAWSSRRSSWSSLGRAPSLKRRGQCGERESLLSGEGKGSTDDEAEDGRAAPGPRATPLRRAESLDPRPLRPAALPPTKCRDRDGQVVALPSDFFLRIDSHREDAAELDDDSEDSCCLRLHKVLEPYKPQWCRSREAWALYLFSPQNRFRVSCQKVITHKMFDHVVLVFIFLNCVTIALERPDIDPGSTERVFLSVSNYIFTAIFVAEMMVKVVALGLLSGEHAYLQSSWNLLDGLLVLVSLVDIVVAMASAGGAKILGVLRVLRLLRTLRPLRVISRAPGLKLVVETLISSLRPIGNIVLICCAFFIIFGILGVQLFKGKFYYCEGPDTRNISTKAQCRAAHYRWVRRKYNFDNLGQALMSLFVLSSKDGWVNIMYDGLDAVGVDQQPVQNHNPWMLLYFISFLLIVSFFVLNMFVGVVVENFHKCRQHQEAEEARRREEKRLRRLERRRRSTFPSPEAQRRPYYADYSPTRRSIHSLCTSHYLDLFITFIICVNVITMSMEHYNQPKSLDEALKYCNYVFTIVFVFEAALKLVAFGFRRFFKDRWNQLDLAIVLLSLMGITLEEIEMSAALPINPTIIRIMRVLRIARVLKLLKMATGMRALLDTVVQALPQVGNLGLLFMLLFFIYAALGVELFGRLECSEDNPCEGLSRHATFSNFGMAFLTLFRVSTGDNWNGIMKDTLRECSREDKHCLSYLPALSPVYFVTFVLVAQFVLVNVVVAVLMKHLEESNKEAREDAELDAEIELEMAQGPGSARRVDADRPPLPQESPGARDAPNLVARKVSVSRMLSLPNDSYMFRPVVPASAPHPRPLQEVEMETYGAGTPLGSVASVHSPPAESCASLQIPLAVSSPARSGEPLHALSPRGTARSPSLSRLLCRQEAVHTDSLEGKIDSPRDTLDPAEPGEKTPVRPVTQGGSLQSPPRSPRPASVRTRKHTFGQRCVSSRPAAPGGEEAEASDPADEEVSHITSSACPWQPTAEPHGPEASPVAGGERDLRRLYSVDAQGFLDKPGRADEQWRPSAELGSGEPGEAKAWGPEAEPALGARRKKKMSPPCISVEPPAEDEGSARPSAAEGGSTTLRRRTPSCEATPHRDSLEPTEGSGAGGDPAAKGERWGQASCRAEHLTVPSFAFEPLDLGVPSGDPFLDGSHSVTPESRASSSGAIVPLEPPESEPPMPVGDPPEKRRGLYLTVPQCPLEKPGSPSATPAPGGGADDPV

| SMILES | IC50 [nM] |
| --- | --- |
| Cc1cc(CC(=O)Nc2cnn(Cc3ccc(C#N)cn3)n2)ccc1OCC(F)(F)F [Example 242, N-[2-(5-Cyano-pyridin-2-ylmethyl)-2H-[1,2,3]triazol-4-yl]-2-[3-methyl-4-(2,2,2-trifluoro-ethoxy)-phenyl]-acetamide] | 54 |
| Cc1cn(C)c2ccc(CC(=O)Nc3cnn(Cc4ccc(C#N)cn4)n3)cc12 [Example 243, N-[2-(5-Cyano-pyridin-2-ylmethyl)-2H-[1,2,3]triazol-4-yl]-2-(1,3-dimethyl-1H-indol-5-yl)-acetamide] | 110 |
| CC(C)(C)c1ccc(CC(=O)Nc2cnn(Cc3ccc(C#N)cn3)n2)cc1 [Example 244, 2-(4-tert-Butyl-phenyl)-N-[2-(5-cyano-pyridin-2-ylmethyl)-2H-[1,2,3]triazol-4-yl]-acetamide] | 34 |
| N#Cc1ccc(Cn2ncc(NC(=O)Cc3ccc(OC4CC(F)(F)C4)cc3)n2)nc1 [Example 246, N-[2-(5-Cyano-pyridin-2-ylmethyl)-2H-[1,2,3]triazol-4-yl]-2-[4-(3,3-difluoro-cyclobutoxy)-phenyl]-acetamide] | 680 |

More lines, now with the values ahead:

| IC50 [nM] | SMILES |
| --- | --- |
| 190 | N#Cc1ccc(Cn2ncc(NC(=O)Cc3ccc(C4(C(F)(F)F)CC4)cc3)n2)nc1 [Example 245, N-[2-(5-Cyano-pyridin-2-ylmethyl)-2H-[1,2,3]triazol-4-yl]-2-[4-(1-trifluoromethyl-cyclopropyl)-phenyl]-acetamide] |
| 690 | N#Cc1ccc(Cn2ncc(NC(=O)Cc3cnc(N4CCCC4)c(F)c3)n2)nc1 [Example 247, N-[2-(5-Cyano-pyridin-2-ylmethyl)-2H-[1,2,3]triazol-4-yl]-2-(5-fluoro-6-pyrrolidin-1-yl-pyridin-3-yl)-acetamide] |
| 91 | CC(C)(c1ccc(CC(=O)Nc2cnn(Cc3ccc(C#N)c(F)c3)n2)cc1)C(F)(F)F [Example 249, N-[2-(4-Cyano-3-fluoro-benzyl)-2H-[1,2,3]triazol-4-yl]-2-[4-(2,2,2-trifluoro-1,1-dimethyl-ethyl)-phenyl]-acetamide] |
